Assay results reported in ChEMBL document CHEMBL3822390, “Synthesis, characterization and anti-cancer activity of a peptide nucleolipid bioconjugate” (2016).

Key:
Format in all cases: functional
NCI-H226 [1] = experiment: Cytotoxicity against human NCI-H226 cells assessed as cell growth at 10 uM after 48 hrs by SRB assay; conditions: NCI-H226, 48 h, read-out: Activity
MDA-MB-435 = experiment: Cytotoxicity against human MDA-MB-435 cells assessed as cell growth at 10 uM after 48 hrs by SRB assay; conditions: MDA-MB-435, 48 h, read-out: Activity
[2] = Cytotoxicity against human LOXIMVI cells assessed as cell growth at 10 uM after 48 hrs by SRB assay; conditions: LOX IMVI, read-out: Activity
NCI-H226 [3] = experiment: Cytotoxicity against human NCI-H226 cells assessed as cell mortality at 10 uM after 48 hrs by SRB assay; conditions: NCI-H226, 48 h
[4] = Cytotoxicity against human OVCAR3 cells assessed as cell growth at 10 uM after 48 hrs by SRB assay; conditions: OVCAR-3, 48 h, read-out: Activity
786-0 [5] = experiment: Cytotoxicity against human 786-0 cells assessed as cell growth at 10 uM after 48 hrs by SRB assay; conditions: 786-0, 48 h, read-out: Activity
Malme-3M = experiment: Cytotoxicity against human MALME-3M cells assessed as cell growth at 10 uM after 48 hrs by SRB assay; conditions: read-out: Activity
EKVX = experiment: Cytotoxicity against human EKVX cells assessed as cell growth at 10 uM after 48 hrs by SRB assay; conditions: read-out: Activity
NCI-H460 [6] = experiment: Cytotoxicity against human NCI-H460 cells assessed as cell growth at 10 uM after 48 hrs by SRB assay; conditions: NCI-H460, 48 h, read-out: Activity
A549 [7] = experiment: Cytotoxicity against human A549 cells assessed as cell mortality at 7.25 uM after 48 hrs by SRB assay; conditions: A549, 48 h
[8] = Cytotoxicity against human OVCAR4 cells assessed as cell growth at 7.25 uM after 48 hrs by SRB assay; conditions: OVCAR-4, 48 h, read-out: Activity
[9] = Cytotoxicity against human OVCAR8 cells assessed as cell growth at 7.25 uM after 48 hrs by SRB assay; conditions: OVCAR-8, 48 h, read-out: Activity
MDA-MB-468 = experiment: Cytotoxicity against human MDA-MB-468 cells assessed as cell growth at 7.25 uM after 48 hrs by SRB assay; conditions: MDA-MB-468, 48 h, read-out: Activity
[10] = Cytotoxicity against human HOP62 cells assessed as cell growth at 7.25 uM after 48 hrs by SRB assay; conditions: HOP-62, 48 h, read-out: Activity
[11] = Cytotoxicity against human OVCAR5 cells assessed as cell growth at 7.25 uM after 48 hrs by SRB assay; conditions: OVCAR-5, 48 h, read-out: Activity
NCI-H23 = experiment: Cytotoxicity against human NCI-H23 cells assessed as cell growth at 7.25 uM after 48 hrs by SRB assay; conditions: NCI-H23, 48 h, read-out: Activity
[12] = Cytotoxicity against human RPMI8226 cells assessed as cell growth at 7.25 uM after 48 hrs by SRB assay; conditions: RPMI-8226, 48 h, read-out: Activity
[13] = Cytotoxicity against human TK10 cells assessed as cell growth at 7.25 uM after 48 hrs by SRB assay; conditions: TK-10, 48 h, read-out: Activity
[14] = Cytotoxicity against human PC3 cells assessed as cell growth at 7.25 uM after 48 hrs by SRB assay; conditions: PC-3, 48 h, read-out: Activity
[15] = Cytotoxicity against human COLO205 cells assessed as cell growth at 7.25 uM after 48 hrs by SRB assay; conditions: COLO 205, 48 h, read-out: Activity
NCI-H226 [16] = experiment: Cytotoxicity against human NCI-H226 cells assessed as cell growth at 7.25 uM after 48 hrs by SRB assay; conditions: NCI-H226, 48 h, read-out: Activity
SN12C = experiment: Cytotoxicity against human SN12C cells assessed as cell growth at 2.13 uM after 48 hrs by SRB assay; conditions: read-out: Activity
[17] = Cytotoxicity against human BT549 cells assessed as cell growth at 2.13 uM after 48 hrs by SRB assay; conditions: BT-549, 48 h, read-out: Activity
[18] = Cytotoxicity against human RXF393 cells assessed as cell growth at 2.13 uM after 48 hrs by SRB assay; conditions: RXF 393, 48 h, read-out: Activity
CCRF-CEM = experiment: Cytotoxicity against human CCRF-CEM cells assessed as cell growth at 2.13 uM after 48 hrs by SRB assay; conditions: read-out: Activity
NCI-H460 [19] = experiment: Cytotoxicity against human NCI-H460 cells assessed as cell growth at 2.13 uM after 48 hrs by SRB assay; conditions: NCI-H460, 48 h, read-out: Activity
[20] = Cytotoxicity against human SF268 cells assessed as cell growth at 2.13 uM after 48 hrs by SRB assay; conditions: SF-268, 48 h, read-out: Activity
A549 [21] = experiment: Cytotoxicity against human A549 cells assessed as cell growth at 2.13 uM after 48 hrs by SRB assay; conditions: A549, 48 h, read-out: Activity
SR = experiment: Cytotoxicity against human SR cells assessed as cell growth at 2.13 uM after 48 hrs by SRB assay; conditions: read-out: Activity
[22] = Cytotoxicity against human PC3 cells assessed as cell growth at 2.13 uM after 48 hrs by SRB assay; conditions: PC-3, 48 h, read-out: Activity
NCI-H522 = experiment: Cytotoxicity against human NCI-H522 cells assessed as cell growth at 2.13 uM after 48 hrs by SRB assay; conditions: NCI-H522, 48 h, read-out: Activity
[23] = Cytotoxicity against human HCT116 cells assessed as cell growth at 2.13 uM after 48 hrs by SRB assay; conditions: HCT-116, 48 h, read-out: Activity
T47D = experiment: Cytotoxicity against human T47D cells assessed as cell growth at 2.13 uM after 48 hrs by SRB assay; conditions: read-out: Activity
[24] = Cytotoxicity against human HOP62 cells assessed as cell growth at 2.13 uM after 48 hrs by SRB assay; conditions: HOP-62, 48 h, read-out: Activity
[25] = Cytotoxicity against human SW620 cells assessed as cell growth at 2.13 uM after 48 hrs by SRB assay; conditions: SW-620, 48 h, read-out: Activity
[26] = Cytotoxicity against human Hs 578T cells assessed as cell growth at 2.13 uM after 48 hrs by SRB assay; conditions: read-out: Activity
[27] = Cytotoxicity against human OVCAR3 cells assessed as cell growth at 2.13 uM after 48 hrs by SRB assay; conditions: OVCAR-3, 48 h, read-out: Activity
786-0 [28] = experiment: Cytotoxicity against human 786-0 cells assessed as cell growth at 2.13 uM after 48 hrs by SRB assay; conditions: 786-0, 48 h, read-out: Activity
[29] = Cytotoxicity against human TK10 cells assessed as cell growth at 2.13 uM after 48 hrs by SRB assay; conditions: TK-10, 48 h, read-out: Activity
M14 = experiment: Cytotoxicity against human M14 cells assessed as cell growth at 2.13 uM after 48 hrs by SRB assay; conditions: M14, 48 h, read-out: Activity
[30] = Cytotoxicity against human RPMI8226 cells assessed as cell growth at 2.13 uM after 48 hrs by SRB assay; conditions: RPMI-8226, 48 h, read-out: Activity

SMILES: CC(C)C[C@H](NC(=O)[C@H](CCCCN)NC(=O)[C@H](C)NC(=O)[C@H](CC(C)C)NC(=O)[C@H](CCCCN)NC(=O)[C@H](CCCCN)NC(=O)[C@H](C)NC(=O)[C@H](CC(C)C)NC(=O)[C@H](CCCCN)NC(=O)[C@H](C)NC(=O)[C@H](CC(C)C)NC(=O)[C@H](CCCCN)NC(=O)[C@@H](N)CC(=O)O)C(=O)N[C@@H](C)C(=O)N[C@@H](CCCCN)C(=O)N[C@@H](C)C(=O)N[C@@H](CCCCN)C(N)=O
- growth at 10 µM (NCI-H226 [1]): 99.1%
- growth at 10 µM (MDA-MB-435): 108%
- growth at 10 µM [2]: 97.2%
- mortality at 10 µM (NCI-H226 [3]): 1%
- growth at 10 µM [4]: 100%
- growth at 10 µM (786-0 [5]): 105%
- growth at 10 µM (Malme-3M): 107%
- growth at 10 µM (EKVX): 104%
- growth at 10 µM (NCI-H460 [6]): 117%

SMILES: CCCCCCCCCCCCCCCC(=O)NCCCC[C@H](NC(=O)[C@H](C)NC(=O)[C@H](CCCCN)NC(=O)[C@H](C)NC(=O)[C@H](CC(C)C)NC(=O)[C@H](CCCCN)NC(=O)[C@H](C)NC(=O)[C@H](CC(C)C)NC(=O)[C@H](CCCCN)NC(=O)[C@H](CCCCN)NC(=O)[C@H](C)NC(=O)[C@H](CC(C)C)NC(=O)[C@H](CCCCN)NC(=O)[C@H](C)NC(=O)[C@H](CC(C)C)NC(=O)[C@H](CCCCN)NC(=O)[C@@H](N)CC(=O)O)C(N)=O
- mortality at 7.25 µM (A549 [7]): 32%
- growth at 7.25 µM [8]: 116%
- growth at 7.25 µM [9]: 96.4%
- growth at 7.25 µM (MDA-MB-468): 95.9%
- growth at 7.25 µM [10]: 99.8%
- growth at 7.25 µM [11]: 105%
- growth at 7.25 µM (NCI-H23): 104%
- growth at 7.25 µM [12]: 103%
- growth at 7.25 µM [13]: 92.1%
- growth at 7.25 µM [14]: 91.2%
- growth at 7.25 µM [15]: 112%
- growth at 7.25 µM (NCI-H226 [16]): 99.5%

SMILES: CCCCCCCCCCCCCCCCNCCO[C@H]1C[C@H](n2cc(C)c(=O)[nH]c2=O)O[C@@H]1C(=O)NCCCC[C@H](NC(=O)[C@H](C)NC(=O)[C@H](CCCCN)NC(=O)[C@H](C)NC(=O)[C@H](CC(C)C)NC(=O)[C@H](CCCCN)NC(=O)[C@H](C)NC(=O)[C@H](CC(C)C)NC(=O)[C@H](CCCCN)NC(=O)[C@H](CCCCN)NC(=O)[C@H](C)NC(=O)[C@H](CC(C)C)NC(=O)[C@H](CCCCN)NC(=O)[C@H](C)NC(=O)[C@H](CC(C)C)NC(=O)[C@H](CCCCN)NC(=O)[C@@H](N)CC(=O)O)C(N)=O
- growth at 2.13 µM (SN12C): 103%
- growth at 2.13 µM [17]: 113%
- growth at 2.13 µM [18]: 113%
- growth at 2.13 µM (CCRF-CEM): 108%
- growth at 2.13 µM (NCI-H460 [19]): 109%
- growth at 2.13 µM [20]: 100%
- growth at 2.13 µM (A549 [21]): 68.7%
- growth at 2.13 µM (SR): 96.6%
- growth at 2.13 µM [22]: 92.3%
- growth at 2.13 µM (NCI-H522): 88.8%
- growth at 2.13 µM [23]: 99.9%
- growth at 2.13 µM (T47D): 91.6%
- growth at 2.13 µM [24]: 99.4%
- growth at 2.13 µM [25]: 108%
- growth at 2.13 µM [26]: 101%
- growth at 2.13 µM [27]: 107%
- growth at 2.13 µM (786-0 [28]): 107%
- growth at 2.13 µM [29]: 95.9%
- growth at 2.13 µM (M14): 98.5%
- growth at 2.13 µM [30]: 104%
